Assay results as given in US7915293B2, “Ubiquitin ligase inhibitors” (Rigel Pharmaceuticals, Inc., priority 2003, dated 2011).

Legend:
Set-up in all cases: key: “+” indicates that the compound exibits inhibitory activity; “−” indicates that low or no inhibitory activity was observed
[1] = molecular target: E3 (His-APC11/APC2-"APC") (Homo sapiens, UniProt Q9NYG5+Q9UJX6); assay: Plate-based E3 ligase assay (APC FLAG), auto-ubiquitination; format: biochemical; conditions: for APC Flag 8 pt: 8 concentrations tested
Method in brief: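 His-APC11/APC2 auto-ubiquitination was run in casein-blocked nickel plates for 1 h at room temperature, with E1 at 5 ng/well, UbcH5c at 20 ng/well and APC at 100 ng/well. Buffer was 62.5 mM Tris pH 7.6, 3 mM MgCl2, 1 mM DTT, 2.5 mM ATP and Flag-ubiquitin at 100 ng/well. Detection used anti-Flag/HRP chemiluminescence, and IC50 was typically from 6 or 8 concentrations versus a DMSO control.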

A549 cells = assay: Cell proliferation assay, photographic image analysis of proliferation, apoptosis and death (PAD assay), A549; format: cell-based; conditions: 6 concentrations tested
Experimental: (§1) A549 (ATCC# CCL-185), HeLa (ATCC# CCL-2), HCT116 (ATCC# CCL-247), and H1299 (ATCC# CRL-5803) cells were maintained in T175 flasks following the ATCC recommended media and handling procedures. Flasks reaching approximately 70% confluency were trypsinized and resuspended in RPMI media (Cell-Gro catalog number 10-040-CM) modified to contain 5% FBS, 100 ug/mlPen/Strep (Cell-Gro catalog number 30-002-CL), and 0.3 mg/ml L-Glutamine (Cell-Gro catalog number 25-003-CL). A 20,000 cells/ml solution was made for plating. Cells were plated in black Packard 96 well plates by placing 100 μl per well (2,000 cells per well).
(§2) Compounds and additional media were added 24 hours after cell plating. A compound master plate was created with concentrations 500 times greater than the final concentration added to the cells. All compound testing was done in duplicate using 6.3 fold dilutions starting with 10 mM. All outside wells (and 4 internal wells) were DMSO controls. Taxol and at least one additional control were run on all plates. Three microliters of the compound master plate were added to deep well blocks containing 750 μl of RPMI media. One hundred microliters were transferred from the compound/media deep well blocks to the plated cells resulting in a 500 fold dilution of the compounds. Cells were grown at 37° C., 5% CO2 for 48 hours.
(§3) Cells to be analyzed by photography were fixed and stained. One hundred microliters of media were removed and 100 μl of 9.3% […] was added to each well. Plates were left on the benchtop for 45 minutes. A staining solution containing 1.55 μl of 1 mg/ml DAPI added to 18.75 ml PBS was warmed for 15 minutes at 37° C. The cells were aspirated prior to washing with 100 μl of PBS. Seventy microliters of PBS were aspirated and 170 μl of the DAPI solution were added to each well of fixed cells. Plates were left at room temperature for one hour then aspirated and washed twice with 100 μl of PBS. The stained cells were left at 4° C. for a minimum of 16 hours before photographic analysis with Array Scan II (Cellomics). Analysis of the photographic images to determine numbers of live cells (proliferation), apoptotic cells and dead cells, were according to the methods described in U.S. Provisional Patent Application Ser. No. 60/406,714, which incorporated herein in its entirety.

HeLa cells = assay: Cell proliferation assay, photographic image analysis of proliferation, apoptosis and death (PAD assay), HeLa; format: cell-based; conditions: 6 concentrations tested
Experimental: as §1, §2, §3

Sequence of E3 (His-APC11/APC2-"APC") (Q9NYG5 whole entry): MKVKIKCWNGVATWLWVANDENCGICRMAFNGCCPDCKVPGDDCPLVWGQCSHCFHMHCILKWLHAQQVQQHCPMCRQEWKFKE
Sequence of E3 (His-APC11/APC2-"APC") (Q9UJX6 whole entry): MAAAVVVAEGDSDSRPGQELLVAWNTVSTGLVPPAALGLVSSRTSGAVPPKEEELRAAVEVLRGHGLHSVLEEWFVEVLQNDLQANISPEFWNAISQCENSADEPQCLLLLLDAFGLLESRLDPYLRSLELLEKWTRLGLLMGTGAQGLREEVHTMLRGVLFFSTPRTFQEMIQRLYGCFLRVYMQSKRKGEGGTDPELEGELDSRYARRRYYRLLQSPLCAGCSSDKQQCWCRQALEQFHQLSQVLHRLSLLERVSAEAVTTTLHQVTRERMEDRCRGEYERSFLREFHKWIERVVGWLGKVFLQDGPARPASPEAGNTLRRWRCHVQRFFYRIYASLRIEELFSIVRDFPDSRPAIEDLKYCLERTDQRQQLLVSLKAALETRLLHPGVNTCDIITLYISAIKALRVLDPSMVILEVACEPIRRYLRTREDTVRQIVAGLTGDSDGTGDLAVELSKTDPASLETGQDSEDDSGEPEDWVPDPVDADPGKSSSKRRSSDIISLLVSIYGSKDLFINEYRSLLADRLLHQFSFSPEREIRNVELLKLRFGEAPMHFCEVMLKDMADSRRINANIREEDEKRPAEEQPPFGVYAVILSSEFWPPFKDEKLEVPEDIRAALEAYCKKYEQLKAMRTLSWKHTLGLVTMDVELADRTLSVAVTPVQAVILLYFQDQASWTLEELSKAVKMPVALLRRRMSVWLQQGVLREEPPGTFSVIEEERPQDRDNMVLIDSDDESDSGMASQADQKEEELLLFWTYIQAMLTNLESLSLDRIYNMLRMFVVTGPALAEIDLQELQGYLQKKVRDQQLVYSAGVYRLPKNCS

Compound: O=[N+]([O-])c1ccc(Oc2c(Cl)cc(S(=O)(=O)Nc3ccccn3)cc2Cl)c(Cl)c1 [Compound 216, 3,5-dichloro-4-(2-chloro-4-nitrophenoxy)-N-pyridin-2-ylbenzenesulfonamide]
- APC Flag (2 pt) ([1]; 2 concentrations tested): − (2 pt)
- PAD Assay, A549 6 pt (A549 cells): +
- PAD Assay, HELA 6 pt (HeLa cells): +

Compound: O=[N+]([O-])c1ccc(Oc2c(Cl)cc(S(=O)(=O)Nc3ccc(C(F)(F)F)cc3Cl)cc2Cl)c(Cl)c1 [Compound 240, 3,5-dichloro-4-(2-chloro-4-nitrophenoxy)-N-[2-chloro-4-(trifluoromethyl)phenyl]benzenesulfonamide]
- APC Flag 8 pt [1]: +
- PAD Assay, A549 6 pt (A549 cells): +
- PAD Assay, HELA 6 pt (HeLa cells): +

Compound: Cc1ccc(F)cc1NS(=O)(=O)c1cc(Cl)c(Oc2ccc([N+](=O)[O-])cc2Cl)c(Cl)c1 [Compound 242, 3,5-dichloro-4-(2-chloro-4-nitrophenoxy)-N-(5-fluoro-2-methylphenyl)benzene sulfonamide]
- APC Flag 8 pt [1]: +
- PAD Assay, A549 6 pt (A549 cells): +
- PAD Assay, HELA 6 pt (HeLa cells): +

Compound: Cc1cc2cc(NS(=O)(=O)c3cc(Cl)c(Oc4ccc([N+](=O)[O-])cc4Cl)c(Cl)c3)ccc2[nH]1 [Compound 244, 3,5-dichloro-4-(2-chloro-4-nitrophenoxy)-N-(2-methyl-1H-indol-5-yl)benzene sulfonamide]
- APC Flag 8 pt [1]: +
- PAD Assay, A549 6 pt (A549 cells): +
- PAD Assay, HELA 6 pt (HeLa cells): +

Compound: O=S(=O)(Nc1ccc(Oc2ncccn2)c(Cl)c1)c1cccc(Cl)c1 [Compound 292, 3-chloro-N-[3-chloro-4-(pyrimidin-2-yloxy)phenyl]benzenesulfonamide]
- PAD Assay, A549 6 pt (A549 cells): +
- PAD Assay, HELA 6 pt (HeLa cells): −

Compound: O=S(=O)(Nc1ccc(Oc2ncc(C(F)(F)F)cc2Cl)cc1)c1cccc(Cl)c1 [Compound 294, 3-chloro-N-(4-(3-chloro-5-(trifluoromethyl)pyridyn-2-yloxy)phenyl)benzenesulfonamide]
- PAD Assay, A549 6 pt (A549 cells): +
- PAD Assay, HELA 6 pt (HeLa cells): +

Compound: O=C(Nc1cccc(Cl)c1)N1CCC(Oc2ccccc2C(F)(F)F)CC1 [Compound 305, N-(3-chlorophenyl)-4-(2-(trifluoromethyl)phenoxy)piperidine-1-carboxamide]
- PAD Assay, A549 6 pt (A549 cells): +
- PAD Assay, HELA 6 pt (HeLa cells): +

Compound: CC1CN(S(=O)(=O)c2cc(Cl)c(Oc3ccc([N+](=O)[O-])cc3Cl)c(Cl)c2)CC(C)O1 (stereo not shown) [Example 18, 4-{[3,5-dichloro-4-(2-chloro-4-nitrophenoxy)phenyl]sulfonyl}-2,6-dimethylmorpholine]
- APC Flag 8 pt [1]: −
- PAD Assay, A549 6 pt (A549 cells): −

Compound: O=[N+]([O-])c1ccc(Oc2c(Cl)cc(S(=O)(=O)N3CCCCC3)cc2Cl)c(Cl)c1 [Example 21, 1-{[3,5-dichloro-4-(2-chloro-4-nitrophenoxy)phenyl]sulfonyl}piperidine]
- APC Flag 8 pt [1]: −
- PAD Assay, A549 6 pt (A549 cells): −

Compound: N=C(NS(=O)(=O)c1cc(Cl)c(Oc2ccc([N+](=O)[O-])cc2Cl)c(Cl)c1)c1ccc(Cl)cc1 [Example 25, 4-chloro-N-{[3,5-dichloro-4-(2-chloro-4-nitrophenoxy)phenyl]sulfonyl}benzene-carboximidamide]
- APC Flag 8 pt [1]: +
- PAD Assay, A549 6 pt (A549 cells): −

Compound: N=C(NS(=O)(=O)c1cc(Cl)c(Oc2ccc([N+](=O)[O-])cc2Cl)c(Cl)c1)c1cccnc1 [Example 26, N-{[3,5-dichloro-4-(2-chloro-4-nitrophenoxy)phenyl]sulfonyl}pyridine-3-carboximidamide]
- APC Flag 8 pt [1]: −
- PAD Assay, A549 6 pt (A549 cells): +

Compound: N=C(NS(=O)(=O)c1cc(Cl)c(Oc2ccc([N+](=O)[O-])cc2Cl)c(Cl)c1)c1ccccn1 [Example 27, N-{[3,5-dichloro-4-(2-chloro-4-nitrophenoxy)phenyl]sulfonyl}pyridine-2-carboximidamide]
- APC Flag 8 pt [1]: −
- PAD Assay, A549 6 pt (A549 cells): −

Compound: N=C(NS(=O)(=O)c1cc(Cl)c(Oc2ccc([N+](=O)[O-])cc2Cl)c(Cl)c1)c1ccncc1 [Example 29, N-{[3,5-dichloro-4-(2-chloro-4-nitrophenoxy)phenyl]sulfonyl}pyridine-4-carboximidamide]
- APC Flag 8 pt [1]: +
- PAD Assay, A549 6 pt (A549 cells): +

Compound: N=C(CCl)NS(=O)(=O)c1cc(Cl)c(Oc2ccc([N+](=O)[O-])cc2)c(Cl)c1 [Example 31, 2-chloro-N-{[3,5-dichloro-4-(4-nitrophenoxy)phenyl]sulfonyl}ethanimidamide]
- APC Flag 8 pt [1]: −
- PAD Assay, A549 6 pt (A549 cells): +

Compound: N=C(NS(=O)(=O)c1cc(Cl)c(Oc2ccc([N+](=O)[O-])cc2)c(Cl)c1)c1cccnc1 [Example 60, N-{[3,5-dichloro-4-(4-nitrophenoxy)phenyl]sulfonyl}pyridine-3-carboximidamide]
- APC Flag 8 pt [1]: −
- PAD Assay, A549 6 pt (A549 cells): +

Compound: O=S(=O)(Nc1ccc(F)cc1C(F)(F)F)c1ccc(Oc2ncc(C(F)(F)F)cc2Cl)cc1 [Example 271, 4-{[3-chloro-5-(trifluoromethyl)pyridin-2-yl]oxy}-N-[4-fluoro-2-(trifluoromethyl)phenyl]benzenesulfonamide]
- PAD Assay, A549 6 pt (A549 cells): +
- PAD Assay, HELA 6 pt (HeLa cells): +

Compound: O=S(=O)(Nc1ccc(Oc2ncc(C(F)(F)F)cc2Cl)cc1)c1cccc(C(F)(F)F)c1 [Example 295, N-(4-(3-chloro-5-(trifluoromethyl)pyridin-2-yloxy)phenyl)-3-(trifluoromethyl)benzenesulfonamide]
- PAD Assay, A549 6 pt (A549 cells): +
- PAD Assay, HELA 6 pt (HeLa cells): +

Compound: O=S(=O)(Nc1ccc(Oc2cc(C(F)(F)F)ccn2)cc1)c1cccc(Cl)c1 [Example 297, 3-chloro-N-(4-(4-(trifluoromethyl)pyridin-2-yloxy)phenyl)benzenesulfonamide]
- PAD Assay, A549 6 pt (A549 cells): +
- PAD Assay, HELA 6 pt (HeLa cells): −

Compound: O=S(=O)(Nc1ccc(Oc2cc(C(F)(F)F)ccn2)cc1)c1cccc(C(F)(F)F)c1 [Example 298, 3-(trifluoromethyl)-N-(4-(4-(trifluoromethyl)pyridin-2-yloxy)phenyl)benzenesulfonamide]
- PAD Assay, A549 6 pt (A549 cells): +
- PAD Assay, HELA 6 pt (HeLa cells): +

Compound: O=S(=O)(Nc1ccc(Oc2cc(C(F)(F)F)ccn2)cc1)c1ccccc1C(F)(F)F [Example 299, 2-(trifluoromethyl)-N-(4-(4-(trifluoromethyl)pyridin-2-yloxy)phenyl)benzenesulfonamide]
- PAD Assay, A549 6 pt (A549 cells): +
- PAD Assay, HELA 6 pt (HeLa cells): −

Compound: O=S(=O)(c1cccc(Cl)c1)N1CCC(Oc2ccccc2C(F)(F)F)CC1 [Example 300, 1-(3-chlorophenylsulfonyl)-4-(2-(trifluoromethyl)phenoxy)piperidine]
- PAD Assay, A549 6 pt (A549 cells): +
- PAD Assay, HELA 6 pt (HeLa cells): +

Compound: O=S(=O)(c1cccc(C(F)(F)F)c1)N1CCC(Oc2ccccc2C(F)(F)F)CC1 [Example 301, 4-(2-(trifluoromethyl)phenoxy)-1-(3-(trifluoromethyl)phenylsulfonyl)piperidine]
- PAD Assay, A549 6 pt (A549 cells): +
- PAD Assay, HELA 6 pt (HeLa cells): +

Compound: O=S(=O)(c1ccccc1C(F)(F)F)N1CCC(Oc2ccccc2C(F)(F)F)CC1 [Example 302, 4-(2-(trifluoromethyl)phenoxy)-1-(2-(trifluoromethyl)phenylsulfonyl)piperidine]
- PAD Assay, A549 6 pt (A549 cells): +
- PAD Assay, HELA 6 pt (HeLa cells): +

Compound: O=C(Nc1ccccc1C(F)(F)F)N1CCC(Oc2ccccc2C(F)(F)F)CC1 [Example 306, 4-(2-(trifluoromethyl)phenoxy)-N-(2-(trifluoromethyl)phenyl)piperidine-1-carboxamide]
- PAD Assay, A549 6 pt (A549 cells): −
- PAD Assay, HELA 6 pt (HeLa cells): −
